Measurements: patent US10294218B2 (VIROSTATICS SRL, priority 2012, dated 2019)

Test system: Primary T cells
Assay: Antiproliferative activity (AP), mitotic index by flow cytometry
Assay type: cell-based
Conditions: T-cell, read-out: AP50 (Inhibitory concentration 50% for antiproliferative capacity)
Procedure: Primary T cells are cultured and exposed to different concentrations of the test compounds. Cell proliferation is analysed by measuring mitotic index (ie the number of cell divisions a population of cells undergoes) through flow cytometry based techniques. Mitotic index is expressed as percentage of untreated control. Inhibition of cell proliferation (AP) is then calculated (AP=100 minus % mitotic index compared to control, AP of control=0%). Inhibitory concentration 50% for antiproliferative capacity (AP50) is calculated.
(§1) In Tables 2, 3 and 4, ND means Not Determined.

Row | Compound | IC50 [nM]
1 | COc1ccccc1-c1cc(Nc2ccc(N(C)C)c(Cn3cnc4ccccc43)c2)ncn1 [Example 42, 2-((1H-Benzo[d]imidazol-1-yl)methyl)-N4-(6-(2-methoxyphenyl)pyrimidin-4-yl)-N1,N1-dimethylbenzene-1,4-diamine] | 1800
2 | COc1ccc(Nc2cc(-c3ccccc3OC)ncn2)cc1C(=O)NN [Example 33, 2-Methoxy-5-(6-(2-methoxyphenyl)pyrimidin-4-ylamino)benzohydrazide] | 2000
3 | COc1ccc(Nc2cc(-c3ccccc3OC)ncn2)cc1CNc1ccccc1 [Example 34, N-(4-Methoxy-3-((phenylamino)methyl)phenyl)-6-(2-methoxyphenyl)pyrimidin-4-amine] | > 5000
4 | COc1ccc(Nc2cc(-c3ccccc3OC)ncn2)cc1CNCc1ccccc1 [Example 1, N-(3-((Benzylamino)methyl)-4-methoxyphenyl)-6-(2-methoxyphenyl)pyrimidin-4-amine] | 2500

Same assay, conditions: T-cell; primary T cells, mitotic index; read-out: AP50 (Inhibitory concentration 50% for antiproliferative capacity)

Row | Compound | IC50 [nM]
5 | COc1ccccc1-c1cc(Nc2ccc(O)c([N+](=O)[O-])c2)ncn1 [Example 12, 4-(6-(2-methoxyphenyl)pyrimidin-4-ylamino)-2-nitrophenol] | > 1500
6 | CCOC(=O)c1cc(Nc2cc(-c3ccccc3OC)ncn2)ccc1Cl [Example 14, Ethyl 2-chloro-5-(6-(2-methoxyphenyl)pyrimidin-4-ylamino)benzoate] | > 500
7 | COc1ccccc1-c1cc(Nc2ccc(Cl)c(C(=O)NN)c2)ncn1 [Example 7, 2-Chloro-5-(6-(2-methoxyphenyl)pyrimidin-4-ylamino)benzohydrazide] | 4000
8 | COc1ccccc1-c1cc(Nc2ccc(N3CCN(C)CC3)c(Cn3cnc4ccccc43)c2)ncn1 [Example 2, N-(3-((1H-Benzo[d]imidazol-1-yl)methyl)-4-(4-methylpiperazin-1-yl)phenyl)-6-(2-methoxyphenyl)pyrimidin-4-amine] | 400
9 | COc1ccccc1-c1cc(Nc2ccc(Cl)c(C(=O)N3CCCC3)c2)ncn1 [Example 15, (2-Chloro-5-(6-(2-methoxyphenyl)pyrimidin-4-ylamino)phenyl)(pyrrolidin-1-yl)methanone] | > 500

Test system: laboratory strain of HIV-1
Assay: Antiviral activity against HIV (AV), p24 in infected activated primary T cells
Assay type: cell-based
Conditions: Human immunodeficiency virus 1, T-cell, read-out: AV50 (Inhibitory concentration 50% for antiviral activity)
Procedure: Activated primary T cells are infected with a laboratory strain of HIV-1, then cultured and exposed to different concentrations of the test compounds. HIV replication is analysed by measuring the viral protein p24 and expressed as percentage of untreated control. Inhibition of viral replication (AV) is then calculated (AV=100 minus the % p24 compared to control, AV of control=0%). Inhibitory concentration 50% for antiviral activity (AV50) is calculated.
as §1

Row | Compound | IC50 [nM]
10 | CCOc1ccc(F)cc1-c1cc(Nc2cc(C(N)=O)c(OC)cc2F)ncn1 [Example 148, 5-[6-(2-Ethoxy-5-fluoro-phenyl)-pyrimidin-4-ylamino]-4-fluoro-2-methoxy-benzamide] | < 80
11 | COc1cc(F)ccc1-c1cc(Nc2cc(F)c(OC)c(C(N)=O)c2)ncn1 [Example 138, 3-Fluoro-5-[6-(4-fluoro-2-methoxy-phenyl)-pyrimidin-4-ylamino]-2-methoxy-benzamide] | > 400
12 | COc1ccc(Nc2cc(-c3ccc(F)cc3OC)ncn2)cc1O [Example 123, 5-[6-(4-Fluoro-2-methoxy-phenyl)-pyrimidin-4-ylamino]-2-methoxy-phenol] | 50
13 | COc1ccc(Nc2cc(-c3cc(F)c(F)cc3OC)ncn2)cc1N [Example 83, N^1-[6-(4,5-Difluoro-2-methoxy-phenyl)-pyrimidin-4-yl]-4-methoxy-benzene-1,3-diamine] | 7
14 | COc1ccccc1-c1cc(Nc2cc(F)c(OC)c(C(N)=O)c2)ncn1 [Example 137, 3-Fluoro-2-methoxy-5-[6-(2-methoxy-phenyl)-pyrimidin-4-ylamino]-benzamide] | > 2000
15 | COc1ccccc1-c1cc(Nc2cc(N)c(OC)c(F)c2)ncn1 [Example 88, 5-Fluoro-4-methoxy-N^1-[6-(2-methoxy-phenyl)-pyrimidin-4-yl]-benzene-1,3-diamine] | > 400
16 | CCOc1cc(F)ccc1-c1cc(Nc2ccc(OC)c(N)c2)ncn1 [Example 73, N^1-[6-(2-Ethoxy-4-fluoro-phenyl)-pyrimidin-4-yl]-4-methoxy-benzene-1,3-diamine] | 0.2
17 | COc1cc(F)c(Nc2cc(-c3ccccc3OC)ncn2)cc1N [Example 92, 4-Fluoro-6-methoxy-N^3-[6-(2-methoxy-phenyl)-pyrimidin-4-yl]-benzene-1,3-diamine] | 250
18 | CCOc1ccccc1-c1cc(Nc2cc(F)c(OC)c(C(N)=O)c2)ncn1 [Example 141, 5-[6-(2-Ethoxy-phenyl)-pyrimidin-4-ylamino]-3-fluoro-2-methoxy-benzamide] | 80
19 | COc1ccc(Nc2cc(-c3cccc(F)c3OC)ncn2)cc1N [Example 81, N^1-[6-(3-Fluoro-2-methoxy-phenyl)-pyrimidin-4-yl]-4-methoxy-benzene-1,3-diamine] | 60
20 | COc1ccc(Nc2cc(-c3ccccc3O)ncn2)cc1N [Example 70, 2-[6-(3-Amino-4-methoxy-phenylamino)-pyrimidin-4-yl]-phenol] | > 10000
21 | COc1ccc(Nc2cc(-c3ccc(F)cc3OC(C)C)ncn2)cc1N [Example 86, N^1-[6-(4-Fluoro-2-isopropoxy-phenyl)-pyrimidin-4-yl]-4-methoxy-benzene-1,3-diamine] | 100
22 | CCOc1cc(F)ccc1-c1cc(Nc2cc(N)c(OC)c(F)c2)ncn1 [Example 89, N^1-[6-(2-Ethoxy-4-fluoro-phenyl)-pyrimidin-4-yl]-5-fluoro-4-methoxy-benzene-1,3-diamine] | > 400
23 | COc1ccccc1-c1cc(Nc2ccc(C(N)=O)c(Cl)c2)ncn1 [Example 132, 2-Chloro-4-[6-(2-methoxy-phenyl)-pyrimidin-4-ylamino]-benzamide] | 5000
24 | COc1ccc(Nc2cc(-c3cc(F)ccc3OC)ncn2)cc1O [Example 122, 5-[6-(5-Fluoro-2-methoxy-phenyl)-pyrimidin-4-ylamino]-2-methoxy-phenol] | 80
25 | COC(=O)c1ccc(Nc2cc(-c3ccccc3OC)ncn2)cc1OC [Example 133, 2-Methoxy-4-[6-(2-methoxy-phenyl)-pyrimidin-4-ylamino]-benzoic Acid Methyl Ester] | 7000
26 | CCOc1ccc(Nc2cc(-c3ccc(F)cc3OC)ncn2)cc1N [Example 105, 4-Ethoxy-N^1-[6-(4-fluoro-2-methoxy-phenyl)-pyrimidin-4-yl]-benzene-1,3-diamine] | 16
27 | COc1ccc(F)cc1-c1cc(Nc2cc(F)c(OC)c(C(N)=O)c2)ncn1 [Example 140, 3-Fluoro-5-[6-(5-fluoro-2-methoxy-phenyl)-pyrimidin-4-ylamino]-2-methoxy-benzamide] | > 400
28 | CCOc1ccc(Nc2cc(-c3ccccc3OC)ncn2)cc1N [Example 101, 4-Ethoxy-N^1-[6-(2-methoxy-phenyl)-pyrimidin-4-yl]-benzene-1,3-diamine] | 60
29 | CCOc1ccccc1-c1cc(Nc2ccc(OC)c(N)c2)ncn1 [Example 62, N^1-[6-(2-Ethoxy-phenyl)-pyrimidin-4-yl]-4-methoxy-benzene-1,3-diamine] | < 80
30 | COc1cccc(-c2cc(Nc3ccc(OC)c(N)c3)ncn2)c1 [Example 68, 4-Methoxy-N^1-[6-(3-methoxy-phenyl)-pyrimidin-4-yl]-benzene-1,3-diamine] | 1000
31 | COc1ccc(-c2cc(Nc3ccc(OC)c(N)c3)ncn2)cc1 [Example 66, 4-Methoxy-N^1-[6-(4-methoxy-phenyl)-pyrimidin-4-yl]-benzene-1,3-diamine] | > 10000
32 | CCOc1cc(F)ccc1-c1cc(Nc2cc(F)c(OC)c(C(N)=O)c2)ncn1 [Example 139, 5-[6-(2-Ethoxy-4-fluoro-phenyl)-pyrimidin-4-ylamino]-3-fluoro-2-methoxy-benzamide] | 400
33 | COc1cc(F)ccc1-c1cc(Nc2cc(N)c(OC)c(F)c2)ncn1 [Example 90, 5-Fluoro-N^1-[6-(4-fluoro-2-methoxy-phenyl)-pyrimidin-4-yl]-4-methoxy-benzene-1,3-diamine] | > 400
34 | COc1ccc(Nc2cc(-c3ccccc3OCc3ccccc3)ncn2)cc1N [Example 71, N^1-[6-(2-Benzyloxy-phenyl)-pyrimidin-4-yl]-4-methoxy-benzene-1,3-diamine] | 2000
35 | COc1ccc(Nc2cc(-c3ccccc3Oc3ccccc3)ncn2)cc1N [Example 77, 4-Methoxy-N^1-[6-(2-phenoxy-phenyl)-pyrimidin-4-yl]-benzene-1,3-diamine] | 10000
36 | CCOc1cc(F)ccc1-c1cc(Nc2ccc(OC)c(C(N)=O)c2)ncn1 [Example 130, 5-[6-(2-Ethoxy-4-fluoro-phenyl)-pyrimidin-4-ylamino]-2-methoxy-benzamide] | 16
37 | CCOc1ccc(F)cc1-c1cc(Nc2ccc(OC)c(C(N)=O)c2)ncn1 [Example 131, 5-[6-(2-Ethoxy-5-fluoro-phenyl)-pyrimidin-4-ylamino]-2-methoxy-benzamide] | < 80

Same assay, conditions: summary of AV, AP and cytotoxicity assays

Row | Compound | antiviral and antiproliferative activity and cytotoxicity profile (in words)
38 | COc1ccc(Nc2cc(-c3ccc(F)cc3OC)ncn2)cc1O [Example 123, 5-[6-(4-Fluoro-2-methoxy-phenyl)-pyrimidin-4-ylamino]-2-methoxy-phenol] | good antiviral and antiproliferative activity and a good cytotoxicity profile
39 | COc1ccc(Nc2cc(-c3cc(F)c(F)cc3OC)ncn2)cc1N [Example 83, N^1-[6-(4,5-Difluoro-2-methoxy-phenyl)-pyrimidin-4-yl]-4-methoxy-benzene-1,3-diamine] | good antiviral and antiproliferative activity and a good cytotoxicity profile
40 | CCOc1cc(F)ccc1-c1cc(Nc2ccc(OC)c(N)c2)ncn1 [Example 73, N^1-[6-(2-Ethoxy-4-fluoro-phenyl)-pyrimidin-4-yl]-4-methoxy-benzene-1,3-diamine] | good antiviral and antiproliferative activity and a good cytotoxicity profile
41 | CCOc1ccccc1-c1cc(Nc2cc(F)c(OC)c(C(N)=O)c2)ncn1 [Example 141, 5-[6-(2-Ethoxy-phenyl)-pyrimidin-4-ylamino]-3-fluoro-2-methoxy-benzamide] | good antiviral and antiproliferative activity and a good cytotoxicity profile
42 | CCOc1ccccc1-c1cc(Nc2ccc(OC)c(N)c2)ncn1 [Example 62, N^1-[6-(2-Ethoxy-phenyl)-pyrimidin-4-yl]-4-methoxy-benzene-1,3-diamine] | good antiviral and antiproliferative activity and a good cytotoxicity profile
43 | CCOc1cc(F)ccc1-c1cc(Nc2ccc(OC)c(C(N)=O)c2)ncn1 [Example 130, 5-[6-(2-Ethoxy-4-fluoro-phenyl)-pyrimidin-4-ylamino]-2-methoxy-benzamide] | good antiviral and antiproliferative activity and a good cytotoxicity profile
44 | CCOc1ccc(F)cc1-c1cc(Nc2ccc(OC)c(C(N)=O)c2)ncn1 [Example 131, 5-[6-(2-Ethoxy-5-fluoro-phenyl)-pyrimidin-4-ylamino]-2-methoxy-benzamide] | good antiviral and antiproliferative activity and a good cytotoxicity profile
